According to PubChem BioAssay AID330 (DTP/NCI, 2004):
“And” between values parts separate entries of the source, which are not always exact repeats. Equal values may be shown once. Inconclusive results and toxic doses are left out. Peptide text beside a SMILES is read from it. * marks the point of attachment. βNA = c1ccc2cc(N*)ccc2c1

System: P388 leukemia ip, CD2F1 mice, survival T/C
Experiment: NCI In Vivo Anticancer Drug Screen. Data for tumor model P388 Leukemia (intraperitoneal) in CD2F1 (CDF1) mice
Settings: endpoint: median survival time, higher = longer survival
Outline: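 Mice carrying the transplanted tumor received test compound or vehicle. Survival was recorded in each group, and the value is the treated-group measurement divided by that of the vehicle-treated control group.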

[1] = dose: 50.0 mg/kg/injection, schedule: Q01DX005 (ip), vehicle: saline
[2] = dose: 100.0 mg/kg/injection, schedule: Q01DX005 (ip), vehicle: saline
[3] = dose: 200.0 mg/kg/injection, schedule: Q01DX005 (ip), vehicle: saline
[4] = dose: 25.0 mg/kg/injection, schedule: Q01DX005 (ip), vehicle: Klucel (hydroxypropylcellulose) (HPC)
[5] = dose: 50.0 mg/kg/injection, schedule: Q01DX005 (ip), vehicle: Klucel (hydroxypropylcellulose) (HPC)
[6] = dose: 100.0 mg/kg/injection, schedule: Q01DX005 (ip), vehicle: Klucel (hydroxypropylcellulose) (HPC)
[7] = dose: 200.0 mg/kg/injection, schedule: Q01DX005 (ip), vehicle: Klucel (hydroxypropylcellulose) (HPC)
[8] = dose: 100.0 mg/kg/injection, schedule: Q04DX003 (ip), vehicle: saline
[9] = dose: 60.0 mg/kg/injection, schedule: Q01DX005 (ip), vehicle: saline with Tween-80
[10] = dose: 120.0 mg/kg/injection, schedule: Q01DX005 (ip), vehicle: saline with Tween-80
[11] = dose: 240.0 mg/kg/injection, schedule: Q01DX005 (ip), vehicle: saline with Tween-80
[12] = dose: 50.0 mg/kg/injection, schedule: Q01DX005 (ip), vehicle: saline with Tween-80
[13] = dose: 100.0 mg/kg/injection, schedule: Q01DX005 (ip), vehicle: saline with Tween-80
[14] = dose: 200.0 mg/kg/injection, schedule: Q01DX005 (ip), vehicle: saline with Tween-80

## O=C(OC1COC(Br)C(OC(=O)c2ccccc2)C1OC(=O)c1ccccc1)c1ccccc1 (centres undefined)
dose: 100.0 mg/kg/injection, schedule: Q01DX009 (ip), vehicle: Klucel (hydroxypropylcellulose) (HPC)
  T/C: 100 % of control
dose: 200.0 mg/kg/injection, schedule: Q01DX009 (ip), vehicle: Klucel (hydroxypropylcellulose) (HPC)
  T/C: 100 % of control
dose: 400.0 mg/kg/injection, schedule: Q01DX009 (ip), vehicle: Klucel (hydroxypropylcellulose) (HPC)
  T/C: 90 % of control

## CCOC(=O)c1ccnc2ccc(OCCN(CC)CC)cc12
[1]
  T/C: 96 % of control
[2]
  T/C: 100 % of control
[3]
  T/C: 101 % of control

## COc1cccc(/C=C\C(=O)c2ccccc(=O)c2O)c1OC
[4]
  T/C: 106 % of control
[5]
  T/C: 101 % of control
[6]
  T/C: 114 % of control
[7]
  T/C: 107 % of control

## CC(O)CNCCNc1ccc(NCCNCC(C)O)c2c1C(=O)c1c(O)ccc(O)c1C2=O (centres undefined)
dose: 0.5 mg/kg/injection, schedule: Q01DX009 (ip), vehicle: acid diluted with saline
  T/C: 165 % of control
dose: 1.0 mg/kg/injection, schedule: Q01DX009 (ip), vehicle: acid diluted with saline
  T/C: 150 % of control
dose: 2.0 mg/kg/injection, schedule: Q01DX009 (ip), vehicle: acid diluted with saline
  T/C: 200 % of control
dose: 4.0 mg/kg/injection, schedule: Q01DX009 (ip), vehicle: acid diluted with saline
  T/C: 234 % of control
dose: 8.0 mg/kg/injection, schedule: Q01DX009 (ip), vehicle: acid diluted with saline
  T/C: 202 % of control

## CC(=C/c1cc(C)cc(=O)o1)/C=C/c1ccc(C)c(C)c1C
dose: 12.5 mg/kg/injection, schedule: Q01DX005 (ip), vehicle: Klucel (hydroxypropylcellulose) (HPC)
  T/C: 97 % of control
[4]
  T/C: 97 % of control
[5]
  T/C: 99 % of control and 88 % of control and 90 % of control
[7]
  T/C: 86 % of control and 88 % of control

## CSC(=S)n1nc(-c2ccccc2)c(N=Nc2ccc(Br)cc2)c1C
dose: 100.0 mg/kg/injection, schedule: Q04DX002 (ip), vehicle: Klucel (hydroxypropylcellulose) (HPC)
  T/C: 98 % of control
dose: 200.0 mg/kg/injection, schedule: Q04DX002 (ip), vehicle: Klucel (hydroxypropylcellulose) (HPC)
  T/C: 100 % of control
dose: 400.0 mg/kg/injection, schedule: Q04DX002 (ip), vehicle: Klucel (hydroxypropylcellulose) (HPC)
  T/C: 94 % of control

## O=c1c([N+](=O)[O-])c[nH]c2ccccc12
dose: 25.0 mg/kg/injection, schedule: Q01DX009 (ip), vehicle: distilled water + Tween-80
  T/C: 92 % of control
dose: 50.0 mg/kg/injection, schedule: Q01DX009 (ip), vehicle: distilled water + Tween-80
  T/C: 87 % of control
dose: 100.0 mg/kg/injection, schedule: Q01DX009 (ip), vehicle: distilled water + Tween-80
  T/C: 108 % of control
dose: 200.0 mg/kg/injection, schedule: Q01DX009 (ip), vehicle: distilled water + Tween-80
  T/C: 93 % of control

## Cc1cn(C2CC(O)C(CNC(=O)CCl)O2)c(=O)[nH]c1=O (centres undefined)
[1]
  T/C: 105 % of control
[2]
  T/C: 98 % of control
[3]
  T/C: 109 % of control

## O=C(Nc1ccc(C2=NCCN2)cc1)Nc1cccc(NC(=O)Nc2cccc(C3=NCCN3)c2)c1
dose: 0.75 mg/kg/injection, schedule: Q04DX003 (ip), vehicle: saline with Tween-80
  T/C: 104 % of control
dose: 1.5 mg/kg/injection, schedule: Q04DX003 (ip), vehicle: saline with Tween-80
  T/C: 118 % of control
dose: 8.0 mg/kg/injection, schedule: Q01DX009 (ip), vehicle: saline with Tween-80
  T/C: 163 % of control
dose: 12.0 mg/kg/injection, schedule: Q01DX009 (ip), vehicle: saline with Tween-80
  T/C: 254 % of control
dose: 12.5 mg/kg/injection, schedule: Q04DX003 (ip), vehicle: saline with Tween-80
  T/C: 150 % of control
dose: 18.0 mg/kg/injection, schedule: Q01DX009 (ip), vehicle: saline with Tween-80
  T/C: 272 % of control
[8]
  T/C: 104 % of control

## CC(=O)Nc1cccc2nc(-c3ccccn3)n(CCc3ccccn3)c12
[4]
  T/C: 105 % of control
[5]
  T/C: 102 % of control
[6]
  T/C: 103 % of control
[7]
  T/C: 109 % of control

## COC(=O)C1C2C=CC(C1C(=O)OC)C1C(C(=O)NN)C(C(=O)NN)C21 (centres undefined)
[9]
  T/C: 98 % of control
[10]
  T/C: 97 % of control
[11]
  T/C: 96 % of control

## NC1C[S][Sn]2([O]C1=O)[O]C(=O)C(N)C[S]2 (centres undefined)
[5]
  T/C: 99 % of control
[6]
  T/C: 100 % of control
[7]
  T/C: 100 % of control

## FC(F)(F)CO[Te](OCC(F)(F)F)(OCC(F)(F)F)OCC(F)(F)F
dose: 12.5 mg/kg/injection, schedule: Q01DX001 (ip), vehicle: saline with Tween-80
  T/C: 106 % of control

## COC(=O)C1(N)CCCC1
[8]
  T/C: 90 % of control
dose: 200.0 mg/kg/injection, schedule: Q04DX003 (ip), vehicle: saline
  T/C: 113 % of control
dose: 400.0 mg/kg/injection, schedule: Q04DX003 (ip), vehicle: saline
  T/C: 109 % of control

## O=C1c2ccccc2C(=O)N1CCn1[nH]c(=O)c2ccccc2c1=O
[9]
  T/C: 99 % of control
[10]
  T/C: 90 % of control
[11]
  T/C: 96 % of control

## O=C(CSc1nccc(=O)[nH]1)c1ccccc1
[12]
  T/C: 103 % of control
[13]
  T/C: 103 % of control
[14]
  T/C: 100 % of control

## Cc1ccc(NCCCC2CCCN3CCCCC23)c2c(=O)c3cc(O)ccc3sc12 (centres undefined)
dose: 25.0 mg/kg/injection, schedule: Q01DX001 (ip), vehicle: saline with Tween-80
  T/C: 99 % of control
dose: 50.0 mg/kg/injection, schedule: Q01DX001 (ip), vehicle: saline with Tween-80
  T/C: 98 % of control
dose: 100.0 mg/kg/injection, schedule: Q01DX001 (ip), vehicle: saline with Tween-80
  T/C: 100 % of control

## c1ccc2c(c1)C[n+]1ccc3ccccc3c1-c1c3ccccc3cc[n+]1C2
dose: 12.5 mg/kg/injection, schedule: Q01DX001 (ip), vehicle: saline
  T/C: 100 % of control
dose: 25.0 mg/kg/injection, schedule: Q01DX001 (ip), vehicle: saline
  T/C: 107 % of control

## COC(=O)N1C=CC2ON=C(OC)C2C1 (centres undefined)
[9]
  T/C: 95 % of control
[10]
  T/C: 100 % of control
[11]
  T/C: 94 % of control

## CS(=O)(=O)OCC1NC(=O)C(COS(C)(=O)=O)NC1=O (centres undefined)
dose: 50.0 mg/kg/injection, schedule: Q01DX009 (ip), vehicle: other
  T/C: 106 % of control and 103 % of control
dose: 100.0 mg/kg/injection, schedule: Q01DX009 (ip), vehicle: other
  T/C: 98 % of control and 103 % of control
dose: 200.0 mg/kg/injection, schedule: Q01DX009 (ip), vehicle: other
  T/C: 107 % of control
dose: 400.0 mg/kg/injection, schedule: Q01DX009 (ip), vehicle: other
  T/C: 103 % of control

## CC(=O)/C(=C\c1ccc(Cl)c(Cl)c1)C(=O)C(C)CN(C)C (centres undefined)
dose: 12.5 mg/kg/injection, schedule: Q01DX005 (ip), vehicle: saline with Tween-80
  T/C: 119 % of control and 120 % of control
dose: 25.0 mg/kg/injection, schedule: Q01DX005 (ip), vehicle: saline with Tween-80
  T/C: 118 % of control
[12]
  T/C: 115 % of control and 116 % of control and 121 % of control

## CC(N)C(=O)NC(Cc1ccccc1)C(=O)N1CCCC1C(=O)Nc1ccc2ccccc2c1 (stereo not drawn) (H-Ala-Phe-Pro-βNA; configuration not given here)
[1]
  T/C: 106 % of control
[2]
  T/C: 92 % of control

## Nc1nc2c(c(=O)[nH]1)N(C=O)C(CNc1ccc(C(=O)N[C@@H](CCC(=O)O)C(=O)O)cc1)CN2 (some centres undefined)
dose: 125.0 mg/kg/injection, schedule: Q04DX003 (ip), vehicle: saline
  T/C: 108 % of control
dose: 250.0 mg/kg/injection, schedule: Q04DX003 (ip), vehicle: saline
  T/C: 99 % of control
dose: 500.0 mg/kg/injection, schedule: Q04DX003 (ip), vehicle: saline
  T/C: 99 % of control

## CC1CC(O)C(O)(c2ccccc2)CC1C (centres undefined)
dose: 100.0 mg/kg/injection, schedule: Q01DX001 (ip), vehicle: Klucel (hydroxypropylcellulose) (HPC)
  T/C: 104 % of control
dose: 200.0 mg/kg/injection, schedule: Q01DX001 (ip), vehicle: Klucel (hydroxypropylcellulose) (HPC)
  T/C: 101 % of control
dose: 400.0 mg/kg/injection, schedule: Q01DX001 (ip), vehicle: Klucel (hydroxypropylcellulose) (HPC)
  T/C: 99 % of control

## c1ccc(C2=NN=C(c3ccccc3)N(c3ccccc3)N2)cc1
[12]
  T/C: 105 % of control
[13]
  T/C: 97 % of control
[14]
  T/C: 97 % of control

## O=C(Nc1cc(Cl)c(Cl)cc1Cl)N1CCOCC1
[9]
  T/C: 104 % of control
[10]
  T/C: 105 % of control
[11]
  T/C: 102 % of control

## O=C(c1ccccc1)C(O)(CC(c1ccccc1)[P+](c1ccccc1)(c1ccccc1)c1ccccc1)c1ccccc1 (centres undefined)
dose: 1.32 mg/kg/injection, schedule: Q01DX009 (ip), vehicle: saline with Tween-80
  T/C: 90 % of control
dose: 2.0 mg/kg/injection, schedule: Q01DX009 (ip), vehicle: saline with Tween-80
  T/C: 104 % of control
dose: 3.0 mg/kg/injection, schedule: Q01DX009 (ip), vehicle: saline with Tween-80
  T/C: 113 % of control
dose: 4.5 mg/kg/injection, schedule: Q01DX009 (ip), vehicle: saline with Tween-80
  T/C: 118 % of control
